# From the supplement of paper PMC10307832
# Columns and labels:
# Assay in all cases: relative viability (nuclei count vs DMSO), 5 days (fraction); higher = more cells survive
# [1] = compound: C1=CC2=NC=CN=C2C=C1/C=C/3\C(=O)NC(=O)S3 + NC(=O)Nc1cc(-c2cccc(F)c2)sc1C(=O)N[C@H]1CCCNC1 [AZD7762] (partner 0.2 µM)
# How it was run: (§1)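 Relative viability is defined as nuclei in treated wells over nuclei in vehicle wells. Duplicate plates were run and medians reported. Lung cancer cell lines in 1536-well plates were dosed by pin tool one day after seeding, with one drug or with a fixed anchor-drug dose plus five library-drug doses (not always all listed) in √10 steps, and nuclei were counted after 5 days.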
# [2] = compound: C1=CC2=NC=CN=C2C=C1/C=C/3\C(=O)NC(=O)S3 + Cc1cc(Nc2cc(N3CCN(C)CC3)nc(Sc3ccc(NC(=O)C4CC4)cc3)n2)n[nH]1 [Tozasertib] (partner 0.1 µM)
# How it was run: as §1
# [3] = compound: C1=CC2=NC=CN=C2C=C1/C=C/3\C(=O)NC(=O)S3 + Nc1nc2[nH]cc(CCc3ccc(C(=O)N[C@@H](CCC(=O)O)C(=O)O)cc3)c2c(=O)[nH]1 [Pemetrexed] (partner 0.2 µM)
# How it was run: as §1
# BGJ398 + Phenformin = compound: CCN1CCN(c2ccc(Nc3cc(N(C)C(=O)Nc4c(Cl)c(OC)cc(OC)c4Cl)ncn3)cc2)CC1 [BGJ398] + N=C(N)NC(=N)NCCc1ccccc1 [Phenformin] (partner 250 µM)
# How it was run: as §1
Cell Line,relative viability ([1]; first compound 0.02 µM),relative viability ([1]; first compound 0.06325 µM),relative viability ([1]; first compound 0.2 µM),relative viability ([1]; first compound 0.6325 µM),relative viability ([1]; first compound 2 µM),relative viability ([2]; first compound 0.02 µM),relative viability ([2]; first compound 0.06325 µM),relative viability ([2]; first compound 0.2 µM),relative viability ([2]; first compound 0.6325 µM),relative viability ([2]; first compound 2 µM),relative viability ([3]; first compound 0.02 µM),relative viability ([3]; first compound 0.06325 µM),relative viability ([3]; first compound 0.2 µM),relative viability ([3]; first compound 0.6325 µM),relative viability ([3]; first compound 2 µM),relative viability (BGJ398 + Phenformin; first compound 0.01 µM),relative viability (BGJ398 + Phenformin; first compound 0.03162 µM),relative viability (BGJ398 + Phenformin; first compound 0.1 µM),relative viability (BGJ398 + Phenformin; first compound 0.3162 µM),relative viability (BGJ398 + Phenformin; first compound 1 µM)
201T,0.651,0.531,0.625,0.609,0.576,0.8,0.922,0.917,0.873,0.854,0.316,0.346,0.363,0.348,0.312,0.45,0.444,0.457,0.382,0.386
A549,,,,,,,,,,,,,,,,0.12,0.217,0.154,0.125,0.11
A-427,0.826,0.849,0.709,0.8,0.776,0.209,0.241,0.198,0.198,0.228,0.963,1.03,0.959,0.96,0.903,0.354,0.336,0.273,0.151,0.211
ABC-1,0.696,1.23,1.1,0.819,0.957,0.175,0.217,0.193,0.165,0.179,,,,,,0.287,0.255,0.262,0.22,0.213
BEN,0.727,0.701,0.842,0.627,0.497,0.525,0.446,0.551,0.517,0.683,0.824,0.813,0.773,0.836,0.644,0.263,0.284,0.284,0.261,0.241
CAL-12T,0.675,0.531,0.655,0.582,0.726,0.289,0.383,0.346,0.313,0.331,1.03,1.31,1.34,1.09,1.28,0.542,0.621,0.599,0.579,0.642
COR-L23,,,,,,0.168,0.218,0.19,0.211,0.188,0.187,0.202,0.202,0.19,0.179,0.42,0.441,0.5,0.397,0.391
COR-L 105,,,,,,0.311,0.369,0.343,0.349,0.354,1.13,1.14,1.08,1.12,1.02,0.425,0.377,0.525,0.556,0.448
ChaGo-K-1,0.799,0.821,0.905,0.791,0.83,0.243,0.215,0.248,0.232,0.239,0.263,0.277,0.262,0.265,0.256,0.488,0.47,0.525,0.487,0.458
EKVX,0.677,0.653,0.595,0.692,0.436,0.423,0.321,0.38,0.449,0.352,0.337,0.356,0.363,0.438,0.364,0.216,0.211,0.235,0.234,0.209
EMC-BAC-2,1.11,1.18,1.21,1.08,0.651,0.276,0.253,0.368,0.243,0.297,0.402,0.424,0.44,0.434,0.417,0.497,0.585,0.558,0.5,0.509
EPLC-272H,0.332,0.319,0.333,0.192,0.293,0.263,0.253,0.254,0.259,0.175,0.351,0.266,0.43,0.353,0.318,0.243,0.283,0.272,0.247,0.38
H3255,0.716,0.819,0.903,0.901,0.825,0.575,0.644,0.55,0.602,0.698,0.532,0.559,0.577,0.616,0.533,0.338,,0.371,0.231,0.35
HARA,0.255,0.209,0.402,0.276,0.493,0.0982,0.133,0.128,0.104,0.11,0.226,0.233,0.256,0.231,0.249,0.442,0.545,0.482,0.319,0.382
HCC-15,1.01,1.05,1.16,1.18,1,0.374,0.333,0.303,0.393,0.49,0.231,0.217,0.234,0.231,0.218,0.439,0.497,0.504,0.475,0.496
HCC-44,0.885,1,1.02,1.01,1,0.896,0.875,0.947,0.874,0.605,0.578,0.688,0.667,0.675,0.655,0.213,0.349,0.193,0.195,0.161
HCC-78,0.681,0.567,0.684,0.732,0.202,0.384,0.339,0.408,0.394,0.354,0.925,0.864,0.932,0.838,0.927,0.67,0.609,0.735,0.731,0.607
HCC-366,0.276,,0.247,0.235,0.303,0.114,,0.135,0.108,0.123,0.117,,0.163,0.164,0.21,0.632,0.672,0.6,0.613,0.673
